Test results from patent US8017581B1, “MSH-agonist tripeptide conjugates” (Centre National de la Recherche Scientifique (CNRS), priority 2004, dated 2011).
Non-standard residues stand in square brackets, D forms with d. Residues, ends and D or L forms follow the SMILES beside them. *: point of attachment. Palmitoyl = CCCCCCCCCCCCCCCC(=O)*; Nle = CCCC[C@H](N)C(=O)O

Legend:
MC1 receptor [1] = target: T1, MC1 receptor (Homo sapiens, UniProt Q01726); test: cAMP production in M4Be human melanocyte cells (EC50 determination); type: cell-based; conditions: mean of at least two sets of independent experiments
T1 construct: endogenous in cells; host or cells: M4Be human melanocyte cell line
Procedure: The M4Be human cell line (Jacubovich et al. Cancer Immunol. Immunother. 1979, 7, 59-64), a melanocyte cell line capable of producing melanins, was used in this study to determine the EC50 values.
The cells were maintained in Dulbecco's modified Eagle medium, with 10% of FCS, 1 mM of glutamine, 100 U/ml of penicillin and 10^−4 g/ml of streptomycin. All the cell lines were maintained at 37° C. in a 5% CO2 atmosphere, and the cell culture media were renewed every two days. The cells were plated onto a 96-well plate (Nunc, Roskilde, Denmark) 24 hours before contact with the peptides.
(§1) Briefly, the cells plated out the day before were incubated for 1 hour with 10^−4 M of adenine (Sigma) and then for 10 minutes in Krebs Ringer Hepes medium with 10^−4 M of isobutyl-1-methylxanthine (Sigma), 10^−4 M of 4-[(3-butoxy-4-methoxyphenyl)methyl]-2-imidazolidinone (Calbiochem) and tripeptides according to the invention, at 10^−7 M.
(§2) After this period of time, cell lysis was carried out according to the manufacturer's protocol.
The cAMP content was measured using a competition binding assay kit (RPN225, Amersham Pharmacia Biotech) according to the manufacturer's instructions. Each independent experiment was carried out at least twice in triplicate.
Determination of the EC50:
The curves were adjusted and the EC50 values were determined with nonlinear regression in the GraphPad Prism (GraphPad software). Each EC50 value was the mean of at least two sets of independent experiments.

MC1 receptor [2] = target: T2, MC1 receptor (Mus musculus, UniProt Q01727); test: cAMP induction on Cloudman S91 mouse melanoma cell line (preliminary screening); type: cell-based; conditions: tripeptide at 50 nM, percentage of the maximum response with control peptide (1) at 50 nM
T2 construct: The Cloudman S91 mouse melanoma cell line (Yasumara et al. Science. 154, pages 1186-1189) was used for the preliminary screening; endogenous in cells; host or cells: Cloudman S91 mouse melanoma cells
Procedure: The Cloudman S91 mouse melanoma cell line (Yasumara et al. Science. 154, pages 1186-1189) was used for the preliminary screening. The cells were maintained in HAM F10 with 10% of horse serum, 2% of fetal calf serum (FCS), 1 mM of glutamine, 100 U/ml of penicillin and 10^−4 g/ml of streptomycin (Eurobio, Les Ulis, France). All the cell lines were maintained at 37° C. in a 5% CO2 atmosphere, and the cell culture media were renewed every two days. The cells were plated out onto a 96-well plate (Nunc, Roskilde, Denmark) 24 hours before contact with the peptides.
as §1, §2
The cAMP content was measured using a competition binding assay kit (RPN225, Amersham Pharmacia Biotech) according to the manufacturer's instructions. […]
Thus, 1 tripeptide according to the invention was tested, at a concentration of 50 nM, on the induction of cAMP, which was calculated with respect to the response of cAMP production induced by α-MSH (50 nM).

T1 sequence (Q01726 whole entry): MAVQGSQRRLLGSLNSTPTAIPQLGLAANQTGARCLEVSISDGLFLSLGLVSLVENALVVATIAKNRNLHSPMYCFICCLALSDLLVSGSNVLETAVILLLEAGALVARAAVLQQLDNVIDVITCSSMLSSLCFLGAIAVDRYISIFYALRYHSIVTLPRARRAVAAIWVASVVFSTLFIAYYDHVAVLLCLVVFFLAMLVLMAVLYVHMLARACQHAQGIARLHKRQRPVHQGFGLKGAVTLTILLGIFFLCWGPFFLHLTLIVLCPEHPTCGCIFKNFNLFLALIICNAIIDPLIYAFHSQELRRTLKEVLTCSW
T2 sequence (Q01727 whole entry): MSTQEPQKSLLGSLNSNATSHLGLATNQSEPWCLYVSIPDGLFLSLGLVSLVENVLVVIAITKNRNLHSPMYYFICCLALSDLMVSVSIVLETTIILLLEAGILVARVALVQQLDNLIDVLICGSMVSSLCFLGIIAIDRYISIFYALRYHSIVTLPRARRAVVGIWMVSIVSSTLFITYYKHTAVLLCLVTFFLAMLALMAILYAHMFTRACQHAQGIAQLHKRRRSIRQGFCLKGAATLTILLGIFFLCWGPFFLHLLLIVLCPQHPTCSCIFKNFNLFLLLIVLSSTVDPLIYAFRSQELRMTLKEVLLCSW

Compound	EC50 (MC1 receptor [1])	% cAMP induction (MC1 receptor [2])
CCCC[C@H](NC(C)=O)C(=O)N[C@@H](C)C(=O)N[C@@H](Cc1c[nH]cn1)C(=O)N[C@H](Cc1ccccc1)C(=O)N[C@@H](CCCNC(=N)N)C(=O)N[C@@H](Cc1c[nH]c2ccccc12)C(N)=O [control peptide, Ac-Nle-Ala-His-(D)Phe-Arg-Trp-NH2, reference compound] (Ac-[Nle]AH[dF]RW-NH2)	4 nM	
CCCCCCCCCCCCCCCC(=O)N[C@@H](Cc1c[nH]cn1)C(=O)N[C@H](Cc1ccccc1)C(=O)N[C@@H](CCCNC(=N)N)C(N)=O [tripeptide 1, Palm-His-DPhe-Arg-NH2] (Palmitoyl-His-[dF]-Arg-NH2)	2.3 nM	147%
CCCCCCCCCCCCCCCC(=O)N[C@@H](Cc1c[nH]cn1)C(=O)N[C@H](Cc1ccccc1)C(=O)N[C@@H](Cc1c[nH]c2ccccc12)C(N)=O [tripeptide 2, Palm-His-DPhe-Trp-NH2] (Palmitoyl-His-[dF]-Trp-NH2)	17.3 nM	
